Experimental findings from US11334695B2, “Antiperspirant and deodorant compositions comprising malodor reduction compositions” (The Procter & Gamble Company, priority 2014, dated 2022) are described below.

This assay is described as follows: Blocker Index (BI), expert grader ranking of malodor strength of isovaleric acid swatch treated with test material. How it is done: Making Swatches Treated with the Test Material A clean swatch is treated with 13 μL of a known concentration of a test sample material resulting in an about 1 cm of the solution on the clean swatch. Just like the reference swatches, the test sample material swatch is dried in a vented hood for 30 minutes and then wrapped in aluminum foil to prevent contamination. The test material swatches and the FFI reference swatches should be made within 2 hrs of each other. The test material swatch must be used within 0.5 to 12 hours and discarded after 12 hours. Assigning the FFI to the Test Material At least two perfumers/expert graders are used to assign an FFI grade to a test sample. The perfumer/expert grader smells the test sample swatch by holding that swatch 1 inch from their nose with their nose centered over the area where the test sample was pipetted on to the fabric and then assigns the test sample an FFI grade using the FFI reference scale anchor swatches as references. In cases where the test sample material is graded greater than 3, the test material is not a blocker material or the concentration of the material needs to be lowered and reevaluated to determine if a lower level has a malodor blocker functionality. Method for Assigning the BI to Test Sample The first step in the method for assigning a BI to a test sample material on the BI reference scale is to create the BI reference swatches. […] Fabric swatches for this test are white knit polycotton (4 inch×4 inch) swatches from EMC ordered as PC 50/50. The supplier is instructed to strip the swatches first, stripping involves washing twice with a fragrance-free detergent and rinsing three times. […] The BI scale contains one clean swatch with no malodor applied. […] These solutions are pipetted to the middle of the swatches. […] After drying for 30 minutes in a vented hood, the swatches are wrapped in aluminum foil to prevent odor contamination to the treated swatch. A clean untreated swatch is also included as the lowest anchor point of reference for malodor strength on the BI scale. The BI reference scale swatches should be used within 0.5 to 12 hours and discarded after 12 hours. The swatches are used as scale anchor points when graders evaluate a test sample(s) and are assigned a Blocker Index (BI) as show in Table 12. […] The perfumer/expert grader is asked to rank order swatches according to a scale between 0 and 3.
The reference swatches represent the 0, 1, 2, and 3 BIs on the BI reference scale, Table 12. The expert grader should familiarizes him/herself with the strength of the odor on the BI reference swatches by sniffing each one starting at 0 (the lowest odor strength) and ending at 3 (the highest odor strength). This should be done prior to evaluating the swatch treated with the test material.
Making the Malodorous Swatch and Treating it with a Test Material To evaluate the BI, the test material is applied to a malodorous swatch to determine how well the test material blocks the malodor. […] After drying the malodorous swatch a known concentration of test material solution, between 1 ppm and 100 ppm is pipetted onto the malodorous swatch. […] It is sometimes necessary to evaluate several levels of the test material between about 1 and about 100 ppm to determine the BI. Assigning the BI to the Test Material At least two perfumers/expert graders are used to assign the BI to the test sample. […] The test sample swatch is assigned a BI at or between numbers on the BI in table.

Where [1] appears, read: test material at 10 ppm on isovaleric acid swatch.
[2] abbreviates: test material at 50 ppm on isovaleric acid swatch.
[3] abbreviates: test material Conc 10 ppm on swatch with 20 μL 0.08% isovaleric acid, scale 0 to 3.
[4] abbreviates: test material Conc 50 ppm on swatch with 20 μL 0.08% isovaleric acid, scale 0 to 3.

Consider `CC1(C)CCc2ccc(CCC=O)cc21`, for which the BI is 1.5 under setting [1] and 2.7 under setting [2].

Take `CC1CCC2(C(C)C)CC(C)OC2C1` (stereo not shown): the BI under setting [1] was found to be 2.0 and the BI under setting [2] is reported as 2.2.

As to `CCC(=O)OC1CC2C3C=CCC3C1C2(C)C` (stereo not shown), the BI amounted to 1.5 under setting [1] and 2.2 under setting [2].

Turning to `O=C1CCC2CCCCC2O1` (stereo not shown) [3,4,4a,5,6,7,8,8a-octahydrochromen-2-one], the BI runs as follows: under setting [3], 2.0; under setting [4], 2.0.

For the compound `CC(C)(C)C1CCCCC1` [4-tert-butyl cyclohexane], the BI stood at 2.0 under setting [3] and 2.0 under setting [4].

For the compound `CCCCCCCCCCCCCCCC(=O)OC` [Material 109], the BI under setting [3] came out at 2.0.

As to `CCCCCCCCCCCCO` [Material 174], the BI under setting [4] was 2.3.

As for `CC(=O)OCCCCCCC(C)C` [Material 204], the BI reads like this: under setting [3], 2.0; under setting [4], 2.7.

In the case of `CC1(C)CCc2ccc(CCC=O)cc21` [Material 261], the BI by setting is: under setting [3], 1.8; under setting [4], 1.3.

As to `CC(=O)OC1CC2CC1C1CC=CC21` (stereo not shown) [Material 281], the BI is, setting by setting: under setting [3], 2.0; under setting [4], 2.0.

For `CCCCCCCCCCCC(=O)OCC` [Material 391], the BI under setting [4] turned out to be 2.2.

Under setting [4], `C=CC(C)=CCC=C(C)C` [Material 524] returned a BI of 2.8.

Consider `CCC(O)COC1CCCCC1C(C)(C)C` (stereo not shown) [Material 677], for which the BI reads like this: under setting [3], 2.3; under setting [4], 2.0.

As for `CC(CCO)CCc1ccccc1` (stereo not shown) [Material 962], the BI runs as follows: under setting [3], 2.3; under setting [4], 1.7.

`CCOC(=O)OC1C(C)CCC(C)C1C` (stereo not shown) [Material 1005] displayed a BI under setting [4] of 2.6.

Regarding `COC(=O)OC1CC/C=C\CCC1` (stereo not shown) [Material 1139], the BI runs as follows: under setting [3], 2.0; under setting [4], 2.7.

For `C=C1CCC2OC2(C)CCC2C1CC2(C)C` (stereo not shown) [Material 1148], under setting [4], the BI is listed as 2.3.

In the case of `CC1(C)C2CCC3(C2)C1C(=O)CCC3(C)C` (stereo not shown) [Material 1149], the BI by setting is: under setting [3], 1.5; under setting [4], 2.3.

In turn, `CCCCCCCCCCCO` [Undecanol] returned a BI under setting [4] of 2.3.
